Consider five molecules from patent US8222268B2, “Methods for reducing vein irritation” (Adventrx Pharmaceuticals, Inc., priority 2004, dated 2012).

The conditions of data set [1]: in distilled water; bitartrate salt form; cited from earlier work.
The nature of data set [2]: Dialysis test of vinorelbine incorporation into the oil phase of an emulsion. The following applies: for effect of stabilizer on vinorelbine incorporation into the oil phase (vinorelbine concentration in PBS): dialysis against PBS pH 7.4, emulsion with […] (w/w) vinorelbine bitartrate, FIG. 1.
Experimental: The concentration of each stabilizer added into formulation is: 1.57% (w/w) for sodium oleate, 2.73% (w/w) for vitamin E succinate, 2.46% (w/w) for riboflavin-5-phosphate sodium and 2.52% (w/w) for cholesterol sulfate. A formulation without any stabilizer (“control”) and a formulation with extra Phospholipon 90G were also evaluated in the study.
The drug incorporation into the oil phase was tested using a dialysis method developed specifically for this purpose. This method involved filling 500 mg of an emulsion into a Slide-A-Lyzer dialysis cassette with 10,000 MW cutoffs, placing the cassette in 70 mL phosphate buffered saline (PBS), pH 7.4 and shaking the solution on a platform shaker at 100 RPM.

Structures can show the parent of a compound that is named as a salt.

Consider `CCC1=C[C@@H]2CN(C1)Cc1c([nH]c3ccccc13)[C@@](C(=O)OC)(c1cc3c(cc1OC)N(C)[C@H]1[C@@](O)(C(=O)OC)[C@H](OC(C)=O)[C@]4(CC)C=CCN5CC[C@]31[C@@H]54)C2` (relative stereo) [vinorelbine bitartrate, 3′,4′-didehydro-4′-deoxy-C′-norvincaleukoblastine [R-(R*,R*)-2,3-dihydroxybutanedioate (1:2) (salt)]], for which, in data set [1], the aqueous solubility (in general, how much of the substance goes into solution per volume) is listed as greater than 1000 mg/mL. For the molecule `Cc1c(C)c2c(c(C)c1OC(=O)CCC(=O)O)CC[C@@](C)(CCC[C@H](C)CCC[C@H](C)CCCC(C)C)O2` [Vitamin E succinate, vitamin E succinate], in data set [2], the “effect of stabilizer on vinorelbine incorporation into the oil phase (vinorelbine concentration in PBS)” value (“effect of stabilizer” for short) is reported as “most effective stabilizers”.

As to `Cc1cc2nc3c(=O)[nH]c(=O)nc-3n(C[C@H](O)[C@H](O)[C@H](O)COP(=O)([O-])O)c2cc1C.[Na+]` [riboflavin-5-phosphate, riboflavin-5-phosphate sodium], the “effect of stabilizer” value in data set [2] is “most effective stabilizers”. As for `CCC1=C[C@@H]2CN(C1)Cc1c([nH]c3ccccc13)[C@@](C(=O)OC)(c1cc3c(cc1OC)N(C)[C@H]1[C@@](O)(C(=O)OC)[C@H](OC(C)=O)[C@]4(CC)C=CCN5CC[C@]31[C@@H]54)C2` [vinorelbine, reference compound], the “incorporation of vinorelbine in the oil phase” value in data set [2] (emulsion without a stabilizer) was “present primarily in the aqueous phase”.

`CCCCCCCC/C=C\CCCCCCCC(=O)[O-].[Na+]` [sodium oleate]: the “effect of stabilizer” value in data set [2] is reported as “most effective stabilizers”. For the same molecule, the “partition of vinorelbine into the aqueous phase” value in data set [2] (vinorelbine-to-oleate molar ratio of 1:4 (charge ratio of 1:1), dialysis, 28 hours, FIG. 2) is recorded as “almost completely stopped the partition of vinorelbine into the aqueous phase”.
